Results from patent US7189851B2, “Condensed heterocyclic compounds as calcitonin agonists” (SmithKline Beecham Corporation, priority 2002, dated 2007).
pEC50: −log10 of the molar value.

Molecular target: T1, human calcitonin-2 receptor (hCT2R) (Homo sapiens, UniProt P30988)
T1 construct: expressed in transfected cells; host or cells: Chinese hamster ovary (CHO) cells co-transfected with a 6CRE-luciferase reporter; receptor cDNA cloned from the MCF7 cell line
T1 sequence (P30988 25-474): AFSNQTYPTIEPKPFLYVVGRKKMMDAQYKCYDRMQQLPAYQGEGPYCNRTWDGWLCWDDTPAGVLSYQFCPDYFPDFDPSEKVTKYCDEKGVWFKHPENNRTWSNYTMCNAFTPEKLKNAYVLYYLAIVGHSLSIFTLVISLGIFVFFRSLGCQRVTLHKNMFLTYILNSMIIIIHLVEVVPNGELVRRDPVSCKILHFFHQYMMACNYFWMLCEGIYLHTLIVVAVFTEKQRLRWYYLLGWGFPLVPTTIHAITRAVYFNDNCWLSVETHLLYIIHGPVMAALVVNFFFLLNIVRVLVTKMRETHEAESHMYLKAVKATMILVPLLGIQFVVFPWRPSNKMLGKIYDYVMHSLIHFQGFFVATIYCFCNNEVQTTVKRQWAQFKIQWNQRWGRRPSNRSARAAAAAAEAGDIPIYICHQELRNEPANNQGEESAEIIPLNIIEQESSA
Assay: HCT2R CRE-luc reporter assay
Format: cell-based
Settings: agonist activity; CHO-6CRE-luciferase cells co-transfected with hCT2R
Protocol: The compounds of the present invention elicit important and measurable pharmacological responses. As is to be expected, the efficacy of any compound will vary depending upon the particular assay and the particular compound tested.
All recombinant cell line human calcitonin receptor assays were carried out with the human receptor corresponding to GeneBank Accession Number X69920, [See: Molecular Pharmacology 46 (2):246–255, 1994, Cloning and characterization of an abundant subtype of the human calcitonin receptor] cloned from the MCF7 cell line (American Type Tissue Collection, Manassas, Va., USA, Catalog # HTB-22). Human calcitonin receptor (hCT2R) was cloned as a HindIII fragment into plasmid BS SKII. Chinese hamster ovary cells were co-transfected with a 6CRE-luciferase reporter system and hCTR2. HEK cells were transfected with hCTR2.
CHO-6CRE-luciferase cells with or without co-expressed hCTR2 were grown in suspension in commercially available cell culture medium supplemented with 2 mM L-glutamine and 5% fetal bovine serum (FBS). Sixteen hours before each assay, cells were collected and resuspended at 1,000,000 cells/ml in media without FBS. Cells were cultured in spinner flasks at 37° C. in an atmosphere of 5% CO2. At the time of the assay, cells were pelleted by centrifugation and resuspended in media without FBS at a concentration of 250,000 cells/ml. The cell suspension was pipetted into black 96-well microtiter plates (25,000 cells/well) containing test compounds. After a four-hour incubation at 37° C., media was aspirated, followed by addition of 50 microliters of LucLite and PBS (1:1) containing 1 mM CaCl2 and 1 mM MgCl2. The plates were sealed and incubated for 20 minutes in the dark. Luminescent responses were measured using a Packard TopCount.
Structure activity studies were performed on CHO-6CRE-luciferase cells with or without co-transfected hCT2R. Forty-eight hours before each assay, cells were removed with trypsin and plated in 96-well microtiter plates at a concentration of 25–100,000 cells/well. Sixteen hours before each assay, FBS-containing media was removed and replaced with media without FBS. Compounds were added and incubated for four hours at 37° C. After incubation, media was aspirated and 50 microliters of LucLite in PBS (1:1) containing 1 mM CaCl2 and 1 mM MgCl2 were added to each well. Plates were sealed and incubated for 20 minutes in the dark before quantification of luminescence on a Packard TopCount.
Concentration-response curves were calculated and potencies were reported as the concentration of compounds producing half-maximal responses (EC50) or the negative log of the concentration of compounds producing half-maximal responses (pEC50).

| SMILES | pEC50 |
| --- | --- |
| N#Cc1c(CCc2ccc(C(F)(F)F)cc2)nc2c(c1-c1ccc(C(=O)NCc3ccco3)cc1)C(=O)N1CCC[C@@H]21 [Example 28, 4-((9aS)-3-Cyano-5-oxo-2-{2-[4-(trifluoromethyl)phenyl]ethyl}-7,8,9,9a-tetrahydro-5H-pyrido[2,3-α]pyrrolizin-4-yl)-N-(2-furylmethyl)benzamide] | 6.00 to 7.00 |
| Cc1nc2c(c(-c3ccc(C(=O)NCc4ccco4)cc3)c1C(=O)CCc1ccc(F)cc1)C(=O)N1CCC[C@@H]21 [Example 30, 4-{(9aS)-3-[3-(4-fluorophenyl)propanoyl]-2-methyl-5-oxo-7,8,9,9a-tetrahydro-5H-pyrido[2,3-α]pyrrolizin-4-yl}-N-(2-furylmethyl)benzamide] | 6.00 to 7.00 |
| O=C(N[C@@H]1CCc2ccccc21)c1ccc(-c2c3c(nc4c2C(=O)N2CCC[C@@H]42)CC(c2ccc(F)cc2)CC3=O)cc1 (stereo partly drawn) [Example 32, 4-[(3aS)-6-(4-Fluorophenyl)-8,10-dioxo-2,3,3a,5,6,7,8,10-octahydro-1H-pyrrolizino[1,2-b]quinolin-9-yl]-N-[(1R)-2,3-dihydro-1H-inden-1-yl]benzamide] | ≤ 6.00 |
| CCOC(=O)c1c(CCc2ccc(C(F)(F)F)cc2)nc2c(c1-c1ccc(CC(=O)NCc3ccco3)cc1)C(=O)N1CCC[C@@H]21 [Example 37, Ethyl (9aS)-4-(4-{2-[(2-furylmethyl)amino]-2-oxoethyl}phenyl)-5-oxo-2-{2-[4-(trifluoromethyl)phenyl]ethyl}-7,8,9,9a-tetrahydro-5H-pyrido[2,3-α]pyrrolizine-3-carboxylate] | 6.00 to 7.00 |
| CCOC(=O)c1c(CCc2ccc(F)cc2)nc2c(c1-c1ccc(C)cc1)C(=O)N1CCC[C@@H]21 [Example 40, Ethyl (9aS)-2-[2-(4-fluorophenyl)ethyl]-4-(4-methylphenyl)-5-oxo-7,8,9,9a-tetrahydro-5H-pyrido[2,3-α]pyrrolizine-3-carboxylate] | 6.00 to 7.00 |
| CCOC(=O)c1c(CCc2ccc(C(F)(F)F)cc2)nc2c(c1-c1ccc(C(=O)NCCCn3ccnc3)cc1)C(=O)N1CCC[C@@H]21 [Example 41, Ethyl (9aS)-4-[4-({[3-(1H-imidazol-1-yl)propyl]amino}carbonyl)phenyl]-5-oxo-2-{2-[4-(trifluoromethyl)phenyl]ethyl}-7,8,9,9a-tetrahydro-5H-pyrido[2,3-α]pyrrolizine-3-carboxylate] | 6.00 to 7.00 |
| CCOC(=O)c1c(CCc2ccc(C(F)(F)F)cc2)nc2c(c1-c1ccc(C(=O)NCCc3cnc[nH]3)cc1)C(=O)N1CCC[C@@H]21 [Example 42, Ethyl (9aS)-4-[4-({[2-(1H-imidazol-5-yl)ethyl]amino}carbonyl)phenyl]-5-oxo-2-{2-[4-(trifluoromethyl)phenyl]ethyl}-7,8,9,9a-tetrahydro-5H-pyrido[2,3-α]pyrrolizine-3-carboxylate] | 6.00 to 7.00 |
| CCOC(=O)c1c(CCC(F)(F)F)nc2c(c1-c1ccc(C(=O)N[C@@H]3CCc4ccccc43)cc1)C(=O)N1CCC[C@@H]21 [Example 44, Ethyl (9aS)-4-(4-{[(1R)-2,3-dihydro-1H-inden-1-ylamino]carbonyl}phenyl)-5-oxo-2-(3,3,3-trifluoropropyl)-7,8,9,9a-tetrahydro-5H-pyrido[2,3-α]pyrrolizine-3-carboxylate] | 7.00 to 8.00 |
| CCOC(=O)c1c(Cc2ccc(F)cc2F)nc2c(c1-c1ccc(C(=O)NN3CCc4ccccc43)cc1)C(=O)N1CCC[C@@H]21 [Example 45, Ethyl (9aS)-2-(2,4-difluorobenzyl)-4-{4-[(2,3-dihydro-1H-indol-1-ylamino)carbonyl]phenyl}-5-oxo-7,8,9,9a-tetrahydro-5H-pyrido[2,3-α]pyrrolizine-3-carboxylate] | 7.00 to 8.00 |
| CCOC(=O)c1c(Cc2ccc(F)cc2)nc2c(c1-c1ccc(CNC(=O)c3ccccc3)s1)C(=O)N1CCC[C@@H]21 [Example 46, Ethyl (9aS)-4-{5-[(benzoylamino)methyl]-2-thienyl}-2-(4-fluorobenzyl)-5-oxo-7,8,9,9a-tetrahydro-5H-pyrido[2,3-α]pyrrolizine-3-carboxylate] | 6.00 to 7.00 |
| CCOC(=O)c1c(CCc2ccc(C(F)(F)F)cc2)nc2c(c1-c1ccc(CNC(=O)c3cccnc3)s1)C(=O)N1CCC[C@@H]21 [Example 47, Ethyl (9aS)-5-oxo-4-(5-{[(3-pyridinylcarbonyl)amino]methyl}-2-thienyl)-2-{2-[4-(trifluoromethyl)phenyl]ethyl}-7,8,9,9a-tetrahydro-5H-pyrido[2,3-α]pyrrolizine-3-carboxylate] | 7.00 to 8.00 |
| CCOC(=O)c1c(CCc2ccc(F)cc2)cc2c(c1-c1ccc(C(=O)OCc3ccccc3)cc1)C(=O)N1CCC[C@@H]21 [Example 48, Ethyl (9bS)-6-{4-[(benzyloxy)carbonyl]phenyl}-8-[2-(4-fluorophenyl)ethyl]-5-oxo-2,3,5,9b-tetrahydro-1H-pyrrolo[2.1-a]isoindole-7-carboxylate] | ≤ 6.00 |

Next, values leading:

| pEC50 | SMILES |
| --- | --- |
| 7.00 to 8.00 | CC(=O)c1c(CCc2ccc(F)cc2)nc2c(c1-c1ccc(C(=O)NCc3ccco3)cc1)C(=O)N1CCC[C@@H]21 [Example 29, 4-{(9aS)-3-acetyl-2-[2-(4-fluorophenyl)ethyl]-5-oxo-7,8,9,9a-tetrahydro-5H-pyrido[2,3-α]pyrrolizin-4-yl}-N-(2-furylmethyl)benzamide] |
| ≥ 8.00 | O=C(NCc1ccco1)c1ccc(-c2c(C(=O)c3ccco3)c(CCc3ccc(F)cc3)nc3c2C(=O)N2CCC[C@@H]32)cc1 [Example 31, 4-[(9aS)-2-[2-(4-fluorophenyl)ethyl]-3-(2-furoyl)-5-oxo-7,8,9,9a-tetrahydro-5H-pyrido[2,3-α]pyrrolizin-4-yl]-N-(2-furylmethyl)benzamide] |
| ≥ 8.00 | CCOC(=O)c1c(CCc2ccc(C(F)(F)F)cc2)nc2c(c1-c1ccc(C(=O)NCc3ccco3)cc1)C(=O)N1CSC[C@@H]21 [Example 34, Ethyl (9aR)-4-(4-{[(2-furylmethyl)amino]carbonyl}phenyl)-5-oxo-2-{2-[4-(trifluoromethyl)phenyl]ethyl}-9,9a-dihydro-5H-[1,3]thiazolo[3′,4′:1,2]pyrrolo[3,4-b]pyridine-3-carboxylate] |
| 7.00 to 8.00 | CCOC(=O)c1c(CCc2ccc(C(F)(F)F)cc2)nc2c(c1-c1ccc(C(=O)NCc3ccco3)cc1)C(=O)N1CS(=O)(=O)C[C@@H]21 [Example 35, Ethyl (9aR)-4-(4-{[(2-furylmethyl)amino]carbonyl}phenyl)-5-oxo-2-{2-[4-(trifluoromethyl)phenyl]ethyl}-9,9a-dihydro-5H-[1,3]thiazolo[3′,4′:1,2]pyrrolo[3,4-b]pyridine-3-carboxylate 8,8-dioxide] |
| 7.00 to 8.00 | CCOC(=O)c1c(Cc2ccc(F)cc2)nc2c(c1-c1ccc(C(=O)NCc3ccco3)nn1)C(=O)N1CCCC21 (stereo not drawn) [Example 39, Ethyl 2-(4-fluorobenzyl)-4-(6-{[(2-furylmethyl)amino]carbonyl}-3-pyridazinyl)-5-oxo-7,8,9,9a-tetrahydro-5H-pyrido[2,3-α]pyrrolizine-3-carboxylate] |
| ≥ 8.00 | CCOC(=O)c1c(CCCC(C)C)nc2c(c1-c1ccc(C(=O)N[C@@H]3CCc4ccccc43)cc1)C(=O)N1CCC[C@@H]21 [Example 43, Ethyl (9aS)-4-(4-{[(1R)-2,3-dihydro-1H-inden-1-ylamino]carbonyl}phenyl)-2-(4-methylpentyl)-5-oxo-7,8,9,9a-tetrahydro-5H-pyrido[2,3-α]pyrrolizine-3-carboxylate] |
